Results from US8058442B2 (Technion Research and Development Foundation Ltd., priority 2002, dated 2011).
Read-outs that look alike come from different tables or passages of the source.

How the values were obtained:
[1] = biological target: T1, rat brain MAO-B (Rattus norvegicus, UniProt P19643); assay: In vitro inhibition of rat brain MAO-B; assay type: biochemical; details: read-out: inhibition of MAO-B
T1 construct: from tissue; host or cells: rat brain homogenate, 4500 g pellet
T1 sequence (P19643 1-520): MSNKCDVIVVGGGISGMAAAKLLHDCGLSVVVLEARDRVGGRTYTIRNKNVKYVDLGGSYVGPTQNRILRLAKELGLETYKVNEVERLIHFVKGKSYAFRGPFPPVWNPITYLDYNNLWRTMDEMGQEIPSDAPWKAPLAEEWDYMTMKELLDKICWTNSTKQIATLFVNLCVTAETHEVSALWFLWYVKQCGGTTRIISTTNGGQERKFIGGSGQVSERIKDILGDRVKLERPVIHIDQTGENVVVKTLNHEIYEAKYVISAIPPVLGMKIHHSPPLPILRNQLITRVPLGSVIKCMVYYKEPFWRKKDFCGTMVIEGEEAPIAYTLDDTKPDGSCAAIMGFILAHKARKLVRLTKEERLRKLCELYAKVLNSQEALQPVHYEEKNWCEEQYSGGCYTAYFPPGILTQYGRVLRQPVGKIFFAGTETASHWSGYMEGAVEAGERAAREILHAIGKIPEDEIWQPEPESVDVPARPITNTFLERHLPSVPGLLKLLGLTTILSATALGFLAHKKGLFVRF
Protocol: Rats were decapitated and the brains were quickly taken into a weighted ice-cold sucrose buffer (0.32 M), and their weights were determined. All subsequent procedures were performed at 0-4° C. The brains were homogenized in 0.25 M sucrose (one part tissue to 20 parts sucrose) in a Teflon glass homogenizer followed by the addition of sucrose buffer to a final concentration of 10% homogenate. The homogenates were centrifuged at 600 g for 15 min. The supernatant fraction was taken out and centrifuged at 4500 g for 30 min, the pellet was diluted in 0.32 M sucrose buffer and kept frozen for later assaying of MAO. Protein concentration was determined with Bradford reagent at 595 nm, using bovine serum albumin as a standard.
The test compound was added to a suitable dilution of the enzyme preparation (70 μg protein for MAO-B and 150 μg MAO-A assay) in 0.05 M phosphate buffer (pH 7.4). The mixture was incubated together with […], a specific inhibitor of MAO-B (for determination of MAO-A) or […] clorgylin, a specific inhibitor of MAO-A (for determination of MAO-B). Incubation was carried for 1 h at 37° C. before addition of ^14C-5-hydroxytryptamine binoxalate ([…]) for determination of MAO-A, or ^14C-phenylethylamine 100 µM for determination of MAO-B, and incubation continued for 30 min or 20 min, respectively. The reaction was stopped with 2 M ice-cold citric acid, and the metabolites were extracted and determined by liquid-scintillation counting in cpm units.
MAO-A and MAO-B activities were determined in rat brain homogenate in vitro following incubation with varying concentrations of the test compounds.
MAO-B activity in presence of the test compound was expressed as a percentage of that in control samples.

[2] = Iron chelation in solution: fluorescence dequenching of iron-quenched calcein; details: Fe-CAL in HBS pH 7.4, room temperature, 1 h incubation, read-out: half maximal dequenching level
Protocol: Iron binding was determined by the chelator capacity for restoring the fluorescence of iron-quenched calcein (CAL), a dynamic fluorescent metallosensor. The iron-scavenging properties of the chelators were assessed in solution, by mixing iron salts with free CAL.
Iron precomplexed calcein (Fe-CAL) solutions of 1 μm (in Hepes 20 mM buffered saline, pH 7.4=HBS) were incubated in the presence of the indicated concentrations of different chelators at room temperature and the fluorescence intensity (475 nm->520 nm) followed with time in a Tecan fluorescence plate reader, using 96-well culture plates (Nunc) at 100 μl final volume. The time-dependent complexation of iron from Fe-CAL by the chelators was followed by fluorescence dequenching. The fluorescence intensity attained after 1 h incubation is shown as a function of the chelator concentration.
The corresponding half maximal dequenching level for the corresponding chelator was (in μM) (rank order from the fastest acting to the slowest): […]

[3] = test system: human erythroleukemia K562 cells; assay: Iron permeation of the chelators into calcein-loaded K562 cells; assay type: cell-based; details: 5 μM chelator, 37° C.
Protocol: The iron-scavenging properties of the chelators were assessed in human erythroleukemia K562 cells, by loading with the permeant CAL-AM probe, in situ formation of free CAL, and binding of cytosolic labile iron. Calcein-AM readily passes through the cell membrane of viable cells because of the enhanced hydrophobicity as compared to Calcein. When Calcein-AM permeates into the cytoplasm, it is hydrolyzed by esterases in cells to the parent Calcein, a pH-independent, cytosolic fluorescent marker, which remains inside of the cell. The time-dependent recovery of fluorescence in the presence of a given chelator provided a continuous measure for the capacity of the chelator to access the iron/CAL-containing compartment.
Calcein uptake and intracellular fluorescence were determined as follows: K562 erythroleukemia cells were preloaded with calcein (CAL) by incubation with […] of the fluorescent probe CAL-AM for 5 min at 37° C., washed and incubated in HBS medium containing anti-CAL antibodies in order to quench traces of extracellular-associated fluorescence. The suspensions were placed in 96-well plates (100 μl final volume) and analyzed as described above while maintaining the system at 37° C. At the indicated time, the indicated chelator was added so as to reach a final 5 μM concentration.
The values of half maximal time (sec) and fraction of fluorescence recovery were: […]

[4] = test system: PC12 cells; assay: Neuroprotection of PC12 cells against serum-deprivation induced apoptosis (MTT test); assay type: cell-based, rat; details: for number of survival cells (cell viability, % of cells cultured with serum): 0.1 μM chelator, serum-free medium, 24 h, serum-free control 38%
Protocol: Rat PC12 cells, originated from rat pheochromocytoma, were grown at 37° C., in a humid 5% CO2, 95% air environment, in a growth medium containing Dulbecco's modified Eagle's Medium (DMEM, GIBCO, BRL) supplemented with glucose (1 mg/1 ml), 5% fetal calf serum, 10% horse serum, and 1% of a mixture of streptomycin/penicillin. On confluence, the culture was removed and the cells were detached by vigorous washing, centrifuged at 200 g for 5 min and resuspended in DMEM with full serum content. 0.5×10^4 cells/well were placed in microtiter plates (96 wells) precoated with collagen (10 μg/cm^2 were allowed to attach for 24 h before treatment).
Twenty-four hours after attachment of the PC12 cells as described in (g), the medium was replaced with DMEM containing 0.1% BSA. The test compounds were added to the cells after 1 h of incubation. After 24 h incubation, the cells were subjected to MTT test as previously described (Gassen et al., 1998). The absorption was determined in a Perkin-Elmer Dual Wavelength Eliza-Reader at λ=570/650 nm after automatic subtraction of background readings. The results are expressed as percentage of the untreated control.
PC12 cells were grown in serum-free medium alone or in serum-free medium with different concentration of the chelators VK-28, M32, HLA20 and Rasagiline. After 24 h incubation, the cells were subjected to MTT test.
Cell viability was expressed as a percentage of cells cultured in medium supplemented with serum, which served as the control group and was designated as 100%. […] Experimental data are shown as mean±SD (r=6).

`C#CCN1CCN(Cc2ccc(O)c3ncccc23)CC1` [HLA20, 5-(4-propargylpiperazin-1-ylmethyl)-8-hydroxyquinoline] gave an inhibition at 100 µM [1] of 42%, an EC50 ([2]; FIG. 1A) of 3.5 µM and an EC50 ([2]; FIG. 1B) of 5.4 µM. For the same compound, the half maximal time ([3]; FIG. 2A) was 175 s, the half maximal time ([3]; FIG. 2B) was 390 s and the “number of survival cells (cell viability, % of cells cultured with serum)” value [4] was 65%. The “change in the protection against PC12 cell death induced by serum withdrawal” value ([4]; 1 or 10 μM, compared with 0.1 μM) was “no significant change in the protection”.

In the case of `OCCN1CCN(Cc2ccc(O)c3ncccc23)CC1` [VK-28, 5-[4-(2-hydroxyethyl)piperazin-1-ylmethyl]-8-hydroxyquinoline, reference compound], the inhibition at 100 µM ([1]; 100 μM) is reported as 13.3%, the EC50 ([2]; FIG. 1B) is reported as 5.2 µM and the EC50 ([2]; FIG. 1C) is reported as 3.2 µM. For the same compound, the half maximal time ([3]; FIG. 2B) was 1250 s, the half maximal time ([3]; FIG. 2C) was 1500 s and the “number of survival cells (cell viability, % of cells cultured with serum)” value [4] was 80%. The “inhibitory activity against PC12 apoptosis induced by serum withdrawal” value ([4]; 1 μM) was “good inhibitory activity” and the “PC12 cell death in serum-free medium (toxicity)” value ([4]; 10 μM) was “about 75%”.
